Experimental data as given in paper PMC10391911, “Differential effects of two phosphodiesterase 4 inhibitors against lipopolysaccharide-induced neuroinflammation in mice” (BMC Neuroscience, 2023).
Read-outs that look alike come from different tables or passages of the source.

Legend:
[1] = Brain disposition in mice
Experimental: Residual blood in the brain was removed from circulation via cardiac perfusion with saline solution.
For both plasma and brain samples, 30 µL each sample was vortexed with 270 µL acetonitrile containing disopyramide as the internal standard for protein precipitation.

[2] = In vitro protein-binding assay using equilibrium dialysis, brain homogenate; assay type: in vitro ADME, mouse
Experimental: (§1) A rapid equilibrium dialysis device with inserts (cat no. #90,112, Thermo Fisher) was used for the protein-binding assay. […] The samples were incubated for 4 h in a shaking incubator (37℃, 300 rpm). After incubation, 50 µL buffer from the white chamber was added to 50 µL fresh mouse plasma or brain homogenate, and 50 µL dosing solution from the red chamber was added to 50 µL fresh buffer to adjust for matrix effects. To each sample, 200 µL ice-cold acetonitrile with internal standard was added. The samples were centrifuged at 4,000 rpm for 20 min and the supernatants were collected for LC-MS/MS analysis. The unbound fraction of drug (Fu) in plasma and brain tissue was calculated as follows based on previous studies: [drawing 3] [drawing 4]
(§2) where Cprotein-free compartment and Cprotein-containing compartment, D, and dh are the concentrations of drug in the buffer chamber and drug solution chamber, dilution factor, and diluted brain homogenate, respectively.
(§3) The values were calculated using the measured diluted free fractions and the respective dilution factor.

[3] = tested on: NO production in LPS-induced BV-2 cells; test: NO production in LPS-induced BV-2 cells (Griess test); assay type: cell-based, murine; details: 1 h pretreatment, LPS 1 µg/mL 24 h; for Effect on NO levels: up to 10 µM
Experimental: BV-2 cells were seeded at a density of 5 × 10^5 cells/mL in 96-well plates. […] Finally, 1 µg/mL LPS was added to the cell culture medium for 24 h to induce inflammation.

[4] = tested on: NF-κB signaling pathway in LPS-exposed BV-2 cells; test: Western blotting of p-NF-κB and NF-κB in LPS-exposed BV-2 cells; assay type: cell-based, murine; details: 1 and 10 µM, LPS 1 µg/mL 4 h
Experimental: Then the cells were incubated with or without LPS (1 µg/mL) for 4 h. Cells were harvested using trypsin and washed twice in cold Dulbecco’s phosphate-buffered saline and lysed with RIPA lysis buffer (Elpis, Daejeon, Korea) containing protease and phosphatase inhibitor mini tablets (Thermo Fisher, Waltham, MA, USA). Protein lysate concentrations were determined using the Pierce BCA Protein Assay kit (Thermo Fisher). Protein samples (5 µg) were separated via 5–20% sodium dodecyl sulfate polyacrylamide gel electrophoresis and then transferred to polyvinylidene fluoride membranes (ATTO, Tokyo, Japan). After transfer, membranes were blocked using Tris-buffered saline containing 0.5% Tween 20 and 5% bovine serum albumin at room temperature for 1 h. The membranes were incubated overnight at 4℃ with primary antibodies at a dilution ratio of 1:1000. […] Subsequently, blots were detected using horseradish peroxidase-conjugated secondary antibodies (1:10,000 dilution) and the ECL substrate (Millipore Corporation, Billerica, MA, USA) at room temperature for 1 h. Protein expression levels were measured using WSE-6100 LuminoGraph (ATTO). The bands were analyzed using the ImageJ software (NIH, Bethesda, MD, USA).

in vivo = details: male, C57BL/6J, mouse; for AUC(0-t): AUClast
Experimental: Plasma samples were obtained via centrifugation at 15,000 rpm for 3 min and stored at − 20℃ until LC-MS/MS analysis.
The brain-to-plasma ratio (Kp) and unbound Kp (Kp,uu) were calculated as follows: [drawing 5] [drawing 6]
Pharmacokinetic parameters were calculated via non-compartmental analysis using Phoenix WinNonlin, ver. 8.3 (Pharsight, Mountain View, CA, USA).

[5] = Bidirectional MDR1-MDCK monolayer permeability; assay type: in vitro ADME, canine; details: dog, MDCK-MDR1; for Papp at 3 µM: both directions, read-out: Apparent permeability coefficients; for Papp A→B at 3 µM / Papp A→B at 10 µM / Papp A→B at 30 µM: read-out: Papp Apical → Basolateral; for Papp B→A at 3 µM / Papp B→A at 10 µM / Papp B→A at 30 µM: read-out: Papp Basolateral → Apical; for Papp A→B: read-out: Papp in the apical-to-basolateral direction
Experimental: (§4) MDR1-MDCK cells were seeded at a density of 2 × 10^5 cells/well on the apical side of 24-transwell plates with a pore size of 0.4 μm (Corning Costar, Cambridge, MA, USA). Each basolateral chamber was filled with 0.6 mL medium, and each apical side with 0.2 mL medium containing cells. The plates seeded with cells were incubated for 3 days. The culture medium was replaced on both the apical and basolateral sides 2 days after seeding. Before the experiment, the transepithelial electrical resistance was measured using an epithelial voltohmmeter (Millicell ERS-2; Millipore), where 300 ohms or greater was considered to indicate the formation of a cell monolayer with tight junctions. The cells were rinsed twice with pre-warmed Hank’s balanced salt solution (HBSS) containing 10 mM of HEPES and were incubated in a CO2 incubator for 30 min. […] After equilibration, the solutions containing the test or reference compounds were added to either the apical side (0.2 mL) or basolateral side (0.6 mL) of the wells, and the plates were incubated in a shaking incubator (37℃, 200 rpm). Samples were collected every 30 min. To test for apical-to-basolateral flow, 110 µL sample was removed from each basolateral chamber; to test for basolateral-to-apical flow, 110 µL sample was taken from each apical chamber; then, each well was replenished with 110 µL fresh HBSS. To each sample, 50 µL internal standard (5 ng/mL disopyramide) in water was added. Samples were prepared for analysis using solid-phase extraction, and the sample concentrations were analyzed via LC-MS/MS. The permeability of the tested compounds was evaluated by calculating the apparent permeability coefficient (Papp, cm/s) and the efflux ratio (ER). The Papp was calculated as follows: [drawing 1] where dQ/dt is the initial permeability rate of the compound across the cells (ng/s), A is the surface area of the cell monolayer (cm^2), and C0 is the initial concentration of the donor side (ng/mL). From the apical-to-basolateral and basolateral-to-apical Papp values, the ER was calculated as follows: [drawing 2]

MDR1-MDCK monolayer = test: Bidirectional MDR1-MDCK monolayer permeability; assay type: in vitro ADME, canine; details: for P-gp substrate: ER > 2 indicates drug efflux
Experimental: as §4

[6] = In vitro protein-binding assay using equilibrium dialysis, plasma; assay type: in vitro ADME, mouse
Experimental: as §1, §2, §3

[7] = C57BL/6J, mouse, brain, po, 10 mg/kg, 4 h after oral 10 mg/kg, read-out: Concentration, Brain
[8] = C57BL/6J, mouse, brain, po, 10 mg/kg, 4 h after oral 10 mg/kg, read-out: Unbound brain concentration
[9] = C57BL/6J, mouse, brain, po, 10 mg/kg, oral 10 mg/kg, converted from ng/g, read-out: Unbound brain concentration
[10] = C57BL/6J, mouse, plasma, po, 10 mg/kg, 4 h after oral 10 mg/kg, read-out: Concentration, Plasma
[11] = C57BL/6J, mouse, plasma, po, 10 mg/kg, 4 h after oral 10 mg/kg, read-out: Unbound plasma concentration

Row | SMILES | concentration at 4 h [1, 7] | concentration at 4 h [1, 8] | concentration at 4 h [1, 9] | concentration at 4 h [1, 10] | concentration at 4 h [1, 11] | Effect on NO levels [3] | Effect on LPS-induced increase in p-NF-κB expression [4] | bioavailability (in vivo) | AUC(0-inf) (in vivo; iv, 1 mg/kg) | clearance (in vivo; iv, 1 mg/kg) | half-life (in vivo; iv, 1 mg/kg) | AUC(0-t) (in vivo; iv, 1 mg/kg) | AUC(0-inf) (in vivo; po, 10 mg/kg) | Cmax (in vivo; po, 10 mg/kg) | Tmax (in vivo; po, 10 mg/kg) | half-life (in vivo; po, 10 mg/kg) | AUC(0-t) (in vivo; po, 10 mg/kg) | Papp at 3 µM ([5]; 3 µM) | Papp A→B at 3 µM ([5]; 3 µM) | Papp B→A at 3 µM ([5]; 3 µM) | also measured
1 | O=C(Nc1c(Cl)cncc1Cl)c1ccc(OC(F)F)c(OCC2CC2)c1 [roflumilast] | 18.2 ± 12.9 ng/g | 0.07 ng/g | 0.17 nM | 30.6 ± 14.2 ng/mL | 0.39 ng/mL | dose-dependent decrease | prevented the LPS-induced increase in p-NF-κB expression in a concentration-dependent manner | 2.3% | 5070 ± 1100 ng·h/mL | 3.33 mL/min/kg | 3.74 ± 0.71 h | 4890 ± 940 ng·h/mL | 1290 ± 540 ng·h/mL | 150 ± 70 ng/mL | 2.33 ± 1.53 h | 7.13 ± 2.86 h | 1130 ± 540 ng·h/mL | > 23 ×10⁻⁶ cm/s | 25.1 ± 1.28 ×10⁻⁶ cm/s | 23.9 ± 3.61 ×10⁻⁶ cm/s | fraction unbound at 4 h, 5 µM ([2]; mouse, brain homogenate): 0.0037 ± 0.002; IC50 ([3]; Mus musculus, BV-2, read-out: IC50 against NO): 312 nM; Papp A→B at 10 µM ([5]; 10 µM): 44.5 ± 2.53 ×10⁻⁶ cm/s; Papp B→A at 10 µM ([5]; 10 µM): 40.8 ± 6.48 ×10⁻⁶ cm/s; Papp A→B at 30 µM ([5]; 30 µM): 113 ± 5.7 ×10⁻⁶ cm/s; Papp B→A at 30 µM ([5]; 30 µM): 72.2 ± 6.32 ×10⁻⁶ cm/s; Papp A→B ([5]; over 3, 10, and 30 µM): > 25 ×10⁻⁶ cm/s; Permeability class according to FDA guidelines (MDR1-MDCK monolayer): high; P-gp substrate (MDR1-MDCK monolayer): not P-gp substrates; fraction unbound at 4 h, 5 µM ([6]; mouse, plasma): 0.0126 ± 0.0058
2 | O=C(O)Cc1ccc(Cc2cc(-c3cccc(Cl)c3)nc(C(F)(F)F)c2)cc1 [zatolmilast] | 1200 ± 345 ng/g | 1.7 ng/g | 4.2 nM | 3630 ± 890 ng/mL | 9.57 ng/mL | did not have this effect | did not | 3.7% | 86900 ± 10900 ng·h/mL | 0.167 mL/min/kg | 6.35 ± 0.62 h | 81900 ng·h/mL | 62000 ± 31800 ng·h/mL | 2530 ± 860 ng/mL | 2 ± 1.73 h | 20.4 ± 6.77 h | 30300 ± 9640 ng·h/mL | 3.72 to 7.18 ×10⁻⁶ cm/s | 3.72 ± 0.33 ×10⁻⁶ cm/s | 7.18 ± 1.53 ×10⁻⁶ cm/s | Brain Kp,uu ([1]; 4 h after oral 10 mg/kg, 10 mg/kg): 0.18; Kp at 4 h ([1]; C57BL/6J, mouse, brain and plasma, 4 h after oral 10 mg/kg): 0.33; Kp uu at 4 h ([1]; C57BL/6J, mouse, brain and plasma, po, 10 mg/kg, 4 h after oral 10 mg/kg): < 0.18; fraction unbound at 4 h, 5 µM ([2]; mouse blank brain homogenate, 5 µM, mouse brain homogenate, 4 h dialysis, read-out: Fu, Brain): 0.0014 ± 0.0002; Vd (in vivo; iv, 1 mg/kg): 0.07 ± 0.01 L/kg; efflux ratio at 3 µM ([5]; 3 µM, read-out: ER): 1.92; efflux ratio at 10 µM ([5]; 10 µM, read-out: ER): 1.89; Papp A→B at 10 µM ([5]; 10 µM): 9.59 ± 0.84 ×10⁻⁶ cm/s; Papp B→A at 10 µM ([5]; 10 µM): 18 ± 1.37 ×10⁻⁶ cm/s; efflux ratio at 30 µM ([5]; 30 µM, read-out: ER): 1.81; Papp A→B at 30 µM ([5]; 30 µM): 70.3 ± 9.58 ×10⁻⁶ cm/s; Papp B→A at 30 µM ([5]; 30 µM): 126 ± 8.39 ×10⁻⁶ cm/s; efflux ratio ([5]; over 3, 10, and 30 µM, read-out: Efflux ratios (ERs)): < 1.92; Papp A→B ([5]; over 3, 10, and 30 µM): > 3.7 ×10⁻⁶ cm/s; Permeability class according to FDA guidelines (MDR1-MDCK monolayer): moderately high; P-gp substrate (MDR1-MDCK monolayer): not P-gp substrates; Efflux ratios (ERs) (MDR1-MDCK monolayer; over 3, 10, and 30 µM): < 2.0; fraction unbound at 4 h, 5 µM ([6]; pooled mouse plasma, 5 µM, mouse plasma, 4 h dialysis, read-out: Fu, Plasma): 0.0026 ± 0.0001
